Test results as given in patent publication US20240109924A1, “IP4-4,6 SUBSTITUTED DERIVATIVE COMPOUNDS” (SANIFIT THERAPEUTICS, S.A., priority 2021, published 2024).

Legend:
[1] = system: blood perfusion; experiment: In vivo blood perfusion (laser doppler perfusion imaging) in vitamin D3-induced limb ischemia rat model; details: average blood perfusion recovery vs vehicle and sham (sham 100%), SD rats, 30 mg/kg s.c. daily D1-D5
Procedure: (§1) The effects of compounds 1, 6, 9, 14, 18, 31, and 39 over blood perfusion and tissue calcification after the inception of limb ischemia were tested using a rat model for a duration of 5 days. Limb ischemia was induced to all groups from D1 to D3 excepting the sham group, to which no ischemia was induced. The animals were administered placebo and active agent formulations from D1 to D5. Observations were taken at several points during the treatment from D0 to D5. All animals were weighed every day before treatment. Seventy-two male Sprague Dawley (SD) rats (Envigo Corp., Huntingdon, GB) weighing approximately 150-200 g were used. The rats were fed with a […]® Rod14-H diet ([…] GmbH, Soest, DE). The rats were divided in 9 groups, 8 animals per group, as follows: • Group 1-Control (Sham) • Group 2-Physiological saline solution • Group 3-Compound 1 • Group 4-Compound 6 • Group 5-Compound 9 • Group 6-Compound 14 • Group 7-Compound 18 • Group 8-Compound 31 • Group 9-Compound 39 Limb ischemia was induced in the rats of groups 2-9 by subcutaneous administration of 150,000 IU/kg vitamin D3 (cholecalciferol, Duphafral D3 1000; Zoetis Inc., Parsippany, NJ, US) in physiological saline solution (2 mL/kg) every day during D1 to D3. The rats of group 1 were not administered vitamin D3. The rats in groups 1 and 2 were administered 2 mL/kg of physiological saline solution daily from D1 to D5 via subcutaneous route. The animals in groups 3-9 were administered subcutaneously 30 mg/kg of compounds 1, 6, 9, 14, 18, 31, and 39, respectively, in physiological saline solution (2 mL/kg), every day from D1 to D5. Limb functional and ischemia status were evaluated by using a laser doppler perfusion imaging apparatus PeriCam PSI Normal Resolution (Perimed AB, Järfälla, SE) in all groups at D0 and D5. The perfusion difference and perfusion ratio were calculated by comparing the baseline and either D0 or D5 readings for each group. In addition, the blood perfusion ratio of each treatment group (i.e., groups 2 to 9) to sham group was also calculated. All rats of groups 1-9 were sacrificed on D5 30 minutes after dosing for determining their Ca baseline values. The animals were anesthetized by isoflurane inhalation. The whole aorta, carotids, femoral arteries, heart, and right kidney of the subjects were collected for calcium content measurement. The tissues were lyophilized for 48-72 h and weighed. The lyophilized tissues were then digested using a 1:1 HNO3:HClO4 mixture in a dry bath incubator for 2-4 h at 180° C. The digested tissues were subsequently diluted using ultra-pure MilliQ® water (MilliporeSigma (Merck KGaA), Burlington, MA, US) to a final volume of 5 mL (i.e., for femoral arteries and carotids) of 10 mL (i.e., for heart, kidneys, and aorta). Calcium content was quantified via inductively coupled plasma optical emission spectrometry (ICP-OES) using an Optima 7300 DV ICP-OES System spectrometer (PerkinElmer, Inc., Waltham, MA, US) according to the manufacturer's instructions. Average blood perfusion recovery compared to vehicle and sham were also calculated. Recovery for sham was 100%. Blood perfusion recovery calculated was using the following equation: 100-((BP sham-BP new drug)/(BP sham-BP vehicle)*100).

[2] = In vitro inhibition of calcium phosphate crystallization in human plasma (spectrophotometric assay); assay type: biochemical; details: 0-100 μM, 1.5 mM phosphate, 12.5 mM calcium, pH 7.4, absorbance 550 nm, slope 6-24 min, read-out: Relative Potency
How it was run: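 Human plasma spiked with compound (0-100 μM), centrifuged, then brought to final 1.5 mM phosphate and 12.5 mM calcium, pH 7.4. Absorbance at 550 nm read every 3 min for 30 min at rt; inhibition from slopes (6-24 min, absorbance vs log time) relative to blank plasma.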

[3] = system: tissue calcification; experiment: In vivo tissue calcification (calcium content by ICP-OES) in vitamin D3-induced limb ischemia rat model; details: SD rats, vitamin D3 150,000 IU/kg s.c. D1-D3, 30 mg/kg s.c. daily D1-D5, sacrifice D5; for Inhibition of calcification (%) Femoral: femoral arteries; for Inhibition of calcification (%) Kidney: right kidney
Procedure: as §1, with “D5.” for “D5. Limb functional and ischemia status were evaluated by using a laser doppler perfusion imaging apparatus PeriCam PSI Normal Resolution (Perimed AB, Järfälla, SE) in all groups at D0 and D5. The perfusion difference and perfusion ratio were calculated by comparing the baseline and either D0 or D5 readings for each group. In addition, the blood perfusion ratio of each treatment group (i.e., groups 2 to 9) to sham group was also calculated.”

Compound | BP recovery (%) [1] | EC50 [2] | Inhibition of calcification (%) Aorta [3] | Inhibition of calcification (%) Carotid [3] | Inhibition of calcification (%) Femoral [3] | Inhibition of calcification (%) Heart [3] | Inhibition of calcification (%) Kidney [3]
O=C([O-])CCCCCO[C@@H]1[C@@H](OP(=O)([O-])[O-])[C@H](OCCCCCC(=O)[O-])[C@@H](OP(=O)([O-])[O-])[C@@H](OP(=O)([O-])[O-])[C@H]1OP(=O)([O-])[O-].[Na+].[Na+].[Na+].[Na+].[Na+].[Na+].[Na+].[Na+].[Na+].[Na+] [Compound 18, 4,6-O-bis(5-carboxypentyl)-myo-inositol-1,2,3,5-tetrakis(phosphate) decasodium salt] | Over (Average blood perfusion recovery over or under 25%.) | ≤ 5 µM | Under (Average inhibition percentage over or under 25% inhibition of calcification.) | Under (Average inhibition percentage over or under 25% inhibition of calcification.) | Under (Average inhibition percentage over or under 25% inhibition of calcification.) | Over (Average inhibition percentage over or under 25% inhibition of calcification.) | Over (Average inhibition percentage over or under 25% inhibition of calcification.)
O=C([O-])CCn1cc(CO[C@@H]2[C@@H](OP(=O)([O-])[O-])[C@H](OCc3cn(CCC(=O)[O-])nn3)[C@@H](OP(=O)([O-])[O-])[C@@H](OP(=O)([O-])[O-])[C@H]2OP(=O)([O-])[O-])nn1.[Na+].[Na+].[Na+].[Na+].[Na+].[Na+].[Na+].[Na+].[Na+].[Na+] [Compound 31, 4,6-O-bis((1-(2-carboxyethyl)-1H-1,2,3-triazol-4-yl)methyl)-myo-inositol-1,2,3,5-tetrakis(phosphate) decasodium salt] | Over (Average blood perfusion recovery over or under 25%.) | ≤ 5 µM | Over (Average inhibition percentage over or under 25% inhibition of calcification.) | Under (Average inhibition percentage over or under 25% inhibition of calcification.) | Over (Average inhibition percentage over or under 25% inhibition of calcification.) | Over (Average inhibition percentage over or under 25% inhibition of calcification.) | Over (Average inhibition percentage over or under 25% inhibition of calcification.)
COCc1cn(CCCCCCO[C@@H]2[C@@H](OP(=O)([O-])[O-])[C@H](OCCCCCCn3cc(COC)nn3)[C@@H](OP(=O)([O-])[O-])[C@@H](OP(=O)([O-])[O-])[C@H]2OP(=O)([O-])[O-])nn1.[Na+].[Na+].[Na+].[Na+].[Na+].[Na+].[Na+].[Na+] [Compound 39, 4,6-O-bis(6-(4-(methoxymethyl)-1H-1,2,3-triazol-1-yl)hexyl)-myo-inositol-1,2,3,5-tetrakis(phosphate) octasodium salt] | Over (Average blood perfusion recovery over or under 25%.) | ≤ 5 µM | Over (Average inhibition percentage over or under 25% inhibition of calcification.) | Under (Average inhibition percentage over or under 25% inhibition of calcification.) | Over (Average inhibition percentage over or under 25% inhibition of calcification.) | Over (Average inhibition percentage over or under 25% inhibition of calcification.) | Over (Average inhibition percentage over or under 25% inhibition of calcification.)
